Experimental data published in patent US20250098679A1, “HERBICIDAL PYRIDONE DERIVATIVES” (SYNGENTA CROP PROTECTION AG, priority 2021, published 2025).

How the values were obtained:
Format in all cases: in vivo
[1] = test system: Ipomoea hederacea (IPOHE); test: Pre-emergence Test, Ipomoea hederacea (IPOHE); conditions: evaluated after 13 days
[2] = test system: Amaranthus palmeri (AMAPA); test: Pre-emergence Test, Amaranthus palmeri (AMAPA); conditions: evaluated after 13 days
[3] = test system: Echinochloa crus-galli (ECHCG); test: Pre-emergence Test, Echinochloa crus-galli (ECHCG); conditions: evaluated after 13 days
Setaria faberi (SETFA) = test: Post-emergence Test, Setaria faberi (SETFA); parameters: key to percentage damage caused to the plant, SETFA (five-point scale): 5=81-100%, 4=61-80%, 3=41-60%, 2=21-40%, 1=0-20% damage; conditions: 1000 g/ha, evaluated after 13 days
In short: (§1)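 Tested at 1000 g/ha unless otherwise stated. Plants were held at 24/16 °C day/night with a 14 h light period. Percent damage was read at 13 days and reported in five bands.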

[4] = test system: Amaranthus palmeri (AMAPA); test: Post-emergence Test, Amaranthus palmeri (AMAPA); parameters: key: 5=81-100%, 4=61-80%, 3=41-60%, 2=21-40%, 1=0-20% damage; conditions: evaluated after 13 days
In short: as §1

[5] = test system: Amaranthus retoflexus (AMARE); test: Post-emergence Test, Amaranthus retoflexus (AMARE); parameters: key to percentage damage caused to the plant, AMARE (five-point scale): 5=81-100%, 4=61-80%, 3=41-60%, 2=21-40%, 1=0-20% damage; conditions: evaluated after 13 days
In short: as §1

[6] = test system: Amaranthus retoflexus (AMARE); test: Pre-emergence Test, Amaranthus retoflexus (AMARE); conditions: evaluated after 13 days
[7] = test system: Echinochloa crus-galli (ECHCG); test: Post-emergence Test, Echinochloa crus-galli (ECHCG); parameters: key to percentage damage caused to the plant, ECHCG (five-point scale): 5=81-100%, 4=61-80%, 3=41-60%, 2=21-40%, 1=0-20% damage; conditions: evaluated after 13 days; for percentage damage caused to the plant, ECHCG (five-point scale): 250 g/Ha; for Post-emergence Test ECHCG, percentage damage caused to the plant (five-point scale): 250 g/Ha (*)
In short: as §1

[8] = test system: Ipomoea hederacea (IPOHE); test: Post-emergence Test, Ipomoea hederacea (IPOHE); parameters: key to percentage damage caused to the plant, IPOHE (five-point scale): 5=81-100%, 4=61-80%, 3=41-60%, 2=21-40%, 1=0-20% damage; conditions: evaluated after 13 days
In short: as §1

Zea mays (ZEAMX) [9] = test: Pre-emergence Test, Zea mays (ZEAMX); conditions: evaluated after 13 days
Zea mays (ZEAMX) [10] = test: Post-emergence Test, Zea mays (ZEAMX); parameters: key to percentage damage caused to the plant, ZEAMX (five-point scale): 5=81-100%, 4=61-80%, 3=41-60%, 2=21-40%, 1=0-20% damage; conditions: evaluated after 13 days
In short: as §1

| Compound | Pre-emergence Test IPOHE, percentage damage caused to the plant (five-point scale) ([1]; 250 g/Ha (*)) | Pre-emergence Test IPOHE, percentage damage caused to the plant (five-point scale) ([1]; 1000 g/ha) | Pre-emergence Test AMAPA, percentage damage caused to the plant (five-point scale) ([2]; 250 g/Ha (*)) | Pre-emergence Test AMAPA, percentage damage caused to the plant (five-point scale) ([2]; 1000 g/ha) | Pre-emergence Test ECHCG, percentage damage caused to the plant (five-point scale) ([3]; 250 g/Ha (*)) | Pre-emergence Test ECHCG, percentage damage caused to the plant (five-point scale) ([3]; 1000 g/ha) | percentage damage caused to the plant, SETFA (five-point scale) (Setaria faberi (SETFA)) | percentage damage caused to the plant, AMAPA (five-point scale) ([4]; 250 g/Ha) | percentage damage caused to the plant, AMAPA (five-point scale) ([4]; 1000 g/ha) | percentage damage caused to the plant, AMARE (five-point scale) ([5]; 250 g/Ha) | percentage damage caused to the plant, AMARE (five-point scale) ([5]; 1000 g/ha) | Pre-emergence Test AMARE, percentage damage caused to the plant (five-point scale) ([6]; 250 g/Ha (*)) | Pre-emergence Test AMARE, percentage damage caused to the plant (five-point scale) ([6]; 1000 g/ha) | percentage damage caused to the plant, ECHCG (five-point scale) [7] | percentage damage caused to the plant, IPOHE (five-point scale) ([8]; 250 g/Ha) | percentage damage caused to the plant, IPOHE (five-point scale) ([8]; 1000 g/ha) | Pre-emergence Test ZEAMX, percentage damage caused to the plant (five-point scale) (Zea mays (ZEAMX) [9]; 250 g/Ha (*)) | Pre-emergence Test ZEAMX, percentage damage caused to the plant (five-point scale) (Zea mays (ZEAMX) [9]; 1000 g/ha) | percentage damage caused to the plant, ZEAMX (five-point scale) (Zea mays (ZEAMX) [10]; 250 g/Ha) | percentage damage caused to the plant, ZEAMX (five-point scale) (Zea mays (ZEAMX) [10]; 1000 g/ha) | other results |
| --- | --- | --- | --- | --- | --- | --- | --- | --- | --- | --- | --- | --- | --- | --- | --- | --- | --- | --- | --- | --- | --- |
| CCn1c(Cn2ccc(OCC(F)(F)F)n2)cc(=O)c(C(=O)O)c1-c1ccc(Cl)c(Cl)c1 [Compound 185, 2-(3,4-dichlorophenyl)-1-ethyl-4-oxo-6-[[3-(2,2,2-trifluoroethoxy)pyrazol-1-yl]methyl]pyridine-3-carboxylic acid] | 1 (1=0-20%) | 3 (3=41-60%) | 1 (1=0-20%) | 2 (2=21-40%) | 1 (1=0-20%) | 5 (5=81-100%) | 4 (4=61-80%) | 1 (1=0-20%) | 3 (3=41-60%) | 1 (1=0-20%) | 3 (3=41-60%) | 1 (1=0-20%) | 3 (3=41-60%) | 3 (3=41-60%) | 3 (3=41-60%) | 3 (3=41-60%) | 0 | 3 (3=41-60%) | 1 (1=0-20%) | 4 (4=61-80%) | – |
| CCn1c(Cn2ccc(C(C)=O)n2)cc(=O)c(C(=O)O)c1-c1ccc(Cl)c(Cl)c1 [Compound 180, 6-[(3-acetylpyrazol-1-yl)methyl]-2-(3,4-dichlorophenyl)-1-ethyl-4-oxo-pyridine-3-carboxylic acid] | – | 0 | – | 1 (1=0-20%) | – | 1 (1=0-20%) | 1 (1=0-20%) | 0 | 0 | 0 | 1 (1=0-20%) | – | 2 (2=21-40%) | 1 (1=0-20%) | 0 | 1 (1=0-20%) | – | 0 | 0 | 1 (1=0-20%) | – |
| CCn1c(Cn2ccc(/C=N/OC)n2)cc(=O)c(C(=O)O)c1-c1ccc(Cl)c(Cl)c1 [Compound 204, 2-(3,4-dichlorophenyl)-1-ethyl-6-[[3-[(E)-methoxyiminomethyl]pyrazol-1-yl]methyl]-4-oxo-pyridine-3-carboxylic acid] | 2 (2=21-40%) | 4 (4=61-80%) | 1 (1=0-20%) | 1 (1=0-20%) | 2 (2=21-40%) | 4 (4=61-80%) | – | – | – | – | – | 0 | 1 (1=0-20%) | – | – | – | 1 (1=0-20%) | 2 (2=21-40%) | – | – | Post-emergence Test SETFA, percentage damage caused to the plant (five-point scale) (Setaria faberi (SETFA)): 4 (4=61-80%); Post-emergence Test AMAPA, percentage damage caused to the plant (five-point scale) ([4]; 250 g/Ha (*)): 1 (1=0-20%); Post-emergence Test AMAPA, percentage damage caused to the plant (five-point scale) ([4]; 1000 g/ha): 1 (1=0-20%); Post-emergence Test AMARE, percentage damage caused to the plant (five-point scale) ([5]; 250 g/Ha (*)): 1 (1=0-20%); Post-emergence Test AMARE, percentage damage caused to the plant (five-point scale) ([5]; 1000 g/ha): 2 (2=21-40%); Post-emergence Test ECHCG, percentage damage caused to the plant (five-point scale) [7]: 3 (3=41-60%); Post-emergence Test IPOHE, percentage damage caused to the plant (five-point scale) ([8]; 250 g/Ha (*)): 2 (2=21-40%); Post-emergence Test IPOHE, percentage damage caused to the plant (five-point scale) ([8]; 1000 g/ha): 3 (3=41-60%); Post-emergence Test ZEAMX, percentage damage caused to the plant (five-point scale) (Zea mays (ZEAMX) [10]; 250 g/Ha (*)): 2 (2=21-40%); Post-emergence Test ZEAMX, percentage damage caused to the plant (five-point scale) (Zea mays (ZEAMX) [10]; 1000 g/ha): 3 (3=41-60%) |
| CCn1c(Cn2ccc(-c3nccs3)n2)cc(=O)c(C(=O)O)c1-c1ccc(Cl)c(Cl)c1 [Compound 201, 2-(3,4-dichlorophenyl)-1-ethyl-4-oxo-6-[(3-thiazol-2-ylpyrazol-1-yl)methyl]pyridine-3-carboxylic acid] | – | 1 (1=0-20%) | – | 0 | – | 0 | – | – | – | – | – | – | 0 | – | – | – | – | 0 | – | – | Post-emergence Test SETFA, percentage damage caused to the plant (five-point scale) (Setaria faberi (SETFA)): 2 (2=21-40%); Post-emergence Test AMAPA, percentage damage caused to the plant (five-point scale) ([4]; 250 g/Ha (*)): 0; Post-emergence Test AMAPA, percentage damage caused to the plant (five-point scale) ([4]; 1000 g/ha): 1 (1=0-20%); Post-emergence Test AMARE, percentage damage caused to the plant (five-point scale) ([5]; 250 g/Ha (*)): 0; Post-emergence Test AMARE, percentage damage caused to the plant (five-point scale) ([5]; 1000 g/ha): 2 (2=21-40%); Post-emergence Test ECHCG, percentage damage caused to the plant (five-point scale) [7]: 1 (1=0-20%); Post-emergence Test IPOHE, percentage damage caused to the plant (five-point scale) ([8]; 250 g/Ha (*)): 0; Post-emergence Test IPOHE, percentage damage caused to the plant (five-point scale) ([8]; 1000 g/ha): 2 (2=21-40%); Post-emergence Test ZEAMX, percentage damage caused to the plant (five-point scale) (Zea mays (ZEAMX) [10]; 250 g/Ha (*)): 0; Post-emergence Test ZEAMX, percentage damage caused to the plant (five-point scale) (Zea mays (ZEAMX) [10]; 1000 g/ha): 1 (1=0-20%) |
| CCn1c(Cn2ccc(OC(C)C)n2)cc(=O)c(C(=O)O)c1-c1ccc(Cl)c(Cl)c1 [Compound 166, 2-(3,4-dichlorophenyl)-1-ethyl-6-[(3-isopropoxypyrazol-1-yl)methyl]-4-oxo-pyridine-3-carboxylic acid] | 2 (2=21-40%) | 4 (4=61-80%) | 0 | 1 (1=0-20%) | 5 (5=81-100%) | 5 (5=81-100%) | 5 (5=81-100%) | 1 (1=0-20%) | 1 (1=0-20%) | 0 | 1 (1=0-20%) | 0 | 1 (1=0-20%) | 4 (4=61-80%) | 2 (2=21-40%) | 4 (4=61-80%) | 1 (1=0-20%) | 5 (5=81-100%) | 2 (2=21-40%) | 4 (4=61-80%) | – |
| CCn1c(Cn2ccc(Br)n2)cc(=O)c(C(=O)O)c1-c1ccc(Cl)c(Cl)c1 [Compound 177, 6-[(3-bromopyrazol-1-yl)methyl]-2-(3,4-dichlorophenyl)-1-ethyl-4-oxo-pyridine-3-carboxylic acid] | 1 (1=0-20%) | 2 (2=21-40%) | 1 (1=0-20%) | 1 (1=0-20%) | 4 (4=61-80%) | 5 (5=81-100%) | 4 (4=61-80%) | 2 (2=21-40%) | 2 (2=21-40%) | 1 (1=0-20%) | 3 (3=41-60%) | 0 | 1 (1=0-20%) | 3 (3=41-60%) | 4 (4=61-80%) | 3 (3=41-60%) | 0 | 0 | 1 (1=0-20%) | 1 (1=0-20%) | – |
